Article PMC8599359 (Molecular Neurobiology, 2021)

Tests used:
MMP-19 = biological target: T1, MMP-19 (Homo sapiens, UniProt Q99542); experiment: Fluorometric substrate assay (MMP inhibitor profiling kit); format: biochemical; conditions: human recombinant MMP-19, 60 min preincubation, four-parameter fit
T1 construct: purchased Enzo life sciences BML-AK308
Experimental: (§1) Kit contained a panel of ten MMPs and a quenched fluorogenic substrate OMNIMMP® RED. Composition of a quenched fluorogenic substrate was TQ3-GABA-Pro-Cha-Abu-Smc-His-Ala-Dab(6’-TAMRA)-Ala-Lys-NH2 [TQ3 = quencher; GABA = 4-aminobutyric acid; Cha = L-cyclohexylalanine; Abu = 2-aminobutyric acid; Smc = S-methyl-L-cysteine; Dab = 2,4-diaminobutyric acid; 6’-TAMRA = 6’-tetramethylrhodamine]. Experiment was performed as per instructions provided in the manufacturer’s manual. The assays were performed in a 96-well, black, flat, microplate format. The compound NNGH was provided as a prototypic control inhibitor. […] Untreated MMPs were used as control. The experiment was performed in biological triplicates. After 60-min incubation, fluorogenic substrate OMNIMMP® RED was added to each reaction/well to start the reaction. The plate was continuously read at Ex/Em = 545/576 nm (cutoff at 570 nm) for 30 min with 1-min time intervals at constant temperature, 37 °C, using Molecular Devices SpectraMax M3 plate reader with SoftMax Pro 6.2 software.

MMP-12 = biological target: T2, MMP-12 (Homo sapiens, UniProt P39900); experiment: as above; format: biochemical; conditions: human recombinant MMP-12, 60 min preincubation, four-parameter fit
T2 construct: purchased Enzo life sciences BML-AK308
T2 sequence (P39900 106-470): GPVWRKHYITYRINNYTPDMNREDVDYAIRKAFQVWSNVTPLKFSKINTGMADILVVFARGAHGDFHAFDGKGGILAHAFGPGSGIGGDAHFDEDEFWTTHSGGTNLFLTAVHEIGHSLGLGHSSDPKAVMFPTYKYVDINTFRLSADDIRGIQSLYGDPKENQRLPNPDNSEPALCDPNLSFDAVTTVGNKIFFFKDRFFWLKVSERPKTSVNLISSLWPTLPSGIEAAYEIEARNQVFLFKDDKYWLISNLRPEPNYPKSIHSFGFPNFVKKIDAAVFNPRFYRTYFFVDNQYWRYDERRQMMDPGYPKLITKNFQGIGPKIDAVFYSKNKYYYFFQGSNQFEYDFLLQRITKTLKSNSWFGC
Experimental: as §1

[1] = tested on: pregnant C3H/HeJ mice, embryos; experiment: Embryo phenotype assessments; format: in vivo, mouse
Text: (§2) For all animal experiments, C3H/HeJ (10–12 weeks of age, male and female) were purchased from the Jackson Laboratory (Bar Harbor, ME), and were housed in microisolator cages containing autoclaved corncob bedding, and maintained on a 12‐h light‐dark cycle in climate‐controlled laboratory animal facilities approved by the University of Nebraska Medical Center Institutional Animal Care and Use Committee (IACUC). Mice were given free access to irradiated rodent feed (TD. 180,911, Envigo Teklad diet, Madison, WI) and sterile water. Animals were acclimated to the environment for approximately 7–14 days to determine that they were healthy based on observed behavior and weight gain. A female was placed with a male overnight for the purpose of timed matings. The following morning males were removed from the cages and positive vaginal plugs were identified. […] The time of conception was considered to be midnight on the evening of the mating. Treatment of plugged females was started at the morning of the day of plug detection (gestation day (GD) 0.5). […] Pregnant dams were randomly assigned to DTG or vehicle (control) group. Weight gain in dams was measured on GD 0.5, 5.5, 10.5, and 15.5. At GD 16.5, dams were humanely euthanized, and embryos and placenta were harvested. Embryos were evaluated for NTDs. At the time of harvest, the total number of implants (litter size, resorption rates, or viable embryos) was recorded for each pregnancy. Further, whole brain tissues from normal viable embryos were isolated and processed for examination of MMP expression and activity.

[2] = Embryo phenotype assessments; format: in vivo, mouse; conditions: female, C3H/HeJ, mouse, in vivo, oral; GD 16.5, 50 mg/kg/day; read-out: Total viable embryos (%)
Text: as §2

[3] = PK and BD of DTG during pregnancy; format: in vivo, mouse; conditions: for Kp: C3H/HeJ, mouse, oral, 50 mg/kg
Text: Drug administration was started at the day of plug detection (GD 0.5) and continued up to the day of birth of pups. Blood samples were collected from dams into heparinized tubes by cheek puncture (submandibular vein) using a 5-mm lancet (MEDIpoint, Inc., Mineola, NY) at GD 8.5 and 16.5 and postnatal days (PND) 4, 12, and 21 for plasma collection. […] Each sample (plasma or tissue) evaluated for DTG levels was randomly selected from distinct litters.
DTG was purchased from BOC Sciences (Shirley, NY). […]
PK and BD of DTG during pregnancy
DTG levels were quantitated in plasma, and tissue homogenates by ultraperformance liquid chromatography tandem mass spectrometry (UPLC-MS/MS). […]
ml of acetonitrile (ACN) and 10 µl of internal standard (IS) solution were added to 2 5 µl of plasma.
DTG-d3 at a final concentration of 50 ng/m l ser ved as the IS. Samples were vortexed and centrifuged at 17,000×g for 10 min at 4 °C. Supernatants were dried using a speed- vac and reconstituted in 100 µl 50% (v/v) ACN in water. The samples were vortexed and centrifuged at […]
analysis, 50– 200 mg of tissue (placenta, fetal brain) was homogenized in 9 volumes of 90% (v/v) methanol (MeOH) in water using a Qiagen TissueLyzer II (Valencia, CA). Subsequently, 280 µl o f MeOH, 10 µl of 80% (v/v) MeOH in water, and 10 µl IS were added to 100 µl of tissue homogenate.
Samples were then vortexed, left for 5 min on ice and centrifuged at 17,000 × g and 4 °C for 15 min. Twenty µl of supernatant was mixed with 80 µl of 50% (v/v) ACN in water. The samples were centrifuged at 17,000 × g at 4 °C f or 10 m in and the supernatant was used for analysis. Standard

[4] = GD 16.5, 50 mg/kg/day, of 103 viable
[5] = GD 16.5, 50 mg/kg/day, of 130 implants

T1 sequence (Q99542 98-508): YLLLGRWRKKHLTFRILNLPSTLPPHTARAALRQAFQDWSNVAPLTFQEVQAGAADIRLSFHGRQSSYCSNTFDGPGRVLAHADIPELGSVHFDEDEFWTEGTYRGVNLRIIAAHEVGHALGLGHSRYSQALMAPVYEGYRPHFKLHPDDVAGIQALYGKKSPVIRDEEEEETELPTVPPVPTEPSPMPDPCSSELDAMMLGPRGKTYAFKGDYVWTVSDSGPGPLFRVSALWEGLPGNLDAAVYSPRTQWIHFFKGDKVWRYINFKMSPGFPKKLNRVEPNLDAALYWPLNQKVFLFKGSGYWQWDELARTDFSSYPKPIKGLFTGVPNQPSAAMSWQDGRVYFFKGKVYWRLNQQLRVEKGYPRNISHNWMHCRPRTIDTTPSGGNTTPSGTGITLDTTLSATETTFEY

Compound: C[C@@H]1CCO[C@H]2Cn3cc(C(=O)NCc4ccc(F)cc4F)c(=O)c(O)c3C(=O)N12 [DTG, Dolutegravir]
- IC50 (MMP-19): 54 µM
- IC50 (MMP-12): 131 µM
- maternal body weight gain during gestation ([1]; 50 mg/kg/day oral GD 0.5-15.5, DTG vs control): No differences
- Abnormal/litter ([1]; GD 16.5, 50 mg/kg/day): 0.05
- Implants/litter (mean litter size) ([1]; GD 16.5, 50 mg/kg/day): 7.6
- Resorptions/litter ([1]; GD 16.5, 50 mg/kg/day): 1.5
- Total resorptions (%) ([1]; GD 16.5, 50 mg/kg/day): 20.76%
- Viable embryos/litter ([1]; GD 16.5, 50 mg/kg/day): 6.05
- Total implants ([1]; GD 16.5, 50 mg/kg/day, 17 litters): 130
- Viable embryos abnormal, exencephaly (number) [1, 4]: 1
- Viable embryos normal (number) [1, 4]: 102
- Total resorptions (number) [1, 5]: 27
- Total viable embryos (number) [1, 5]: 103
- viability [2]: 79.2%
- plasma drug levels in pregnant dams relative to maximal DTG concentration (Cmax) in human plasma at therapeutic doses ([3]; 50 mg/kg daily): 10 ×
- Kp ([3]; embryo brain / dam plasma, GD 16.5): 0.024
- Kp ([3]; pup brain / dam plasma, PND 4): 0.038
- DTG concentration in plasma of dams ([3]; GD 8.5, 50 mg/kg daily oral gavage from GD 0.5): 38,628.63 ± 4855.53 ng/mL
- ratio of embryo brain DTG levels to placenta DTG levels ([3]; GD 16.5): 0.18
- DTG concentration in placental tissue ([3]; GD 16.5, 50 mg/kg daily oral): 3528.04 ± 316.56 ng/g
- DTG concentration in plasma of dams ([3]; GD 16.5, 50 mg/kg daily oral gavage from GD 0.5): 27,296.3 ± 2701.15 ng/mL
- DTG concentration in embryonic brain tissue ([3]; GD 16.5, 50 mg/kg daily oral to dam): 663.6 ± 75.13 ng/g
- DTG concentration in brain tissue of pups ([3]; PND 4): 48.1 ± 2.35 ng/g
- DTG concentration in plasma of dams ([3]; PND 4, dosing stopped at birth of pups): 1244.2 ± 623.20 ng/mL
- DTG concentration in plasma of dams ([3]; PND 12, dosing stopped at birth of pups): 48.95 ± 7.39 ng/mL
- DTG concentration in plasma of dams ([3]; PND 21, dosing stopped at birth of pups): 21.97 ± 2.42 ng/mL
- DTG level in pup's brain predicted from dam plasma/embryo brain ratio (detection limit) ([3]; PND 28, after cessation of dosing at birth): < 0.1 ng/g
- Kp ([3]; female, placenta / dam plasma, GD 16.5): 0.12
